Source: article PMC2631625 (Bioorganic & medicinal chemistry letters, 2008)

Target: CB1 receptors (Rattus norvegicus, UniProt P20272)
Assay: Inhibition of [3H]SR141716 binding in homogenates of rat cerebellum
Settings: [3H]SR141716 radioligand

CB1 receptors, sequence (P20272 whole entry): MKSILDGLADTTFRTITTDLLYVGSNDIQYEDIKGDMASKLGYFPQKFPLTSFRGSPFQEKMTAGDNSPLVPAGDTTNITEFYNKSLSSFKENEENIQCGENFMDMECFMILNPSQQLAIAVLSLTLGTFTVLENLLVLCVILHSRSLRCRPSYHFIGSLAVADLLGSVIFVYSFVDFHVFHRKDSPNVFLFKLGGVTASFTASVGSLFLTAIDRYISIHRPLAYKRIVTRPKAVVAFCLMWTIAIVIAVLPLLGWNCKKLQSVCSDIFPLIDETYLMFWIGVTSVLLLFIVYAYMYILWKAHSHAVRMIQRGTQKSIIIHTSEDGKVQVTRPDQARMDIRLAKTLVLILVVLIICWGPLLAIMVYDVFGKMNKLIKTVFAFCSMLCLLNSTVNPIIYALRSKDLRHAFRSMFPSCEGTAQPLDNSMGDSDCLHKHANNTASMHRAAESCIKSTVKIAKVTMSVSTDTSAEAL

Row | Compound | binding affinity at CB1 receptors (in words)
1 | Clc1ccc(-c2cnnn2-c2ccc(Cl)cc2Cl)cc1 [Compound 7b] | low affinity
2 | O=C(OCc1ccccc1)c1nnn(-c2ccc(Cl)cc2Cl)c1-c1ccc(Cl)cc1 [Compound 15] | somewhat diminished
3 | O=C(NN1CCCCC1)c1nnn(-c2ccc(Cl)cc2)c1-c1ccc(Cl)cc1 [Compound 9] | low affinity
4 | Clc1ccc(-c2cnnn2-c2ccc(Cl)cc2)cc1 [Compound 7a] | low affinity
